Source: ChEMBL document CHEMBL3525956, “Species independence in brain tissue binding using brain homogenates” (Drug Metab Dispos, 2011)

Experiments:
[1] = Fraction unbound in Hartley guinea pig brain homogenates at 1 uM after 6 hrs by equilibrium dialysis method; conditions: brain homogenate
[2] = Fraction unbound in Wistar Han rat brain homogenates at 1 uM after 6 hrs by equilibrium dialysis method; conditions: brain homogenate
[3] = Fraction unbound in Sprague-Dawley rat brain homogenates at 1 uM after 6 hrs by equilibrium dialysis method; conditions: brain homogenate
[4] = Fraction unbound in CD-1 mouse brain homogenates at 1 uM after 6 hrs by equilibrium dialysis method; conditions: brain homogenate
[5] = Fraction unbound in human occipital cortex at 1 uM after 6 hrs by equilibrium dialysis method
[6] = Fraction unbound in cynomolgus monkey brain homogenates at 1 uM after 6 hrs by equilibrium dialysis method; conditions: brain homogenate
[7] = Fraction unbound in Beagle dog brain homogenates at 1 uM after 6 hrs by equilibrium dialysis method; conditions: brain homogenate

SMILES	fraction unbound at 6 h, 1 µM [1]	fraction unbound at 6 h, 1 µM [2]	fraction unbound at 6 h, 1 µM [3]	fraction unbound at 6 h, 1 µM [4]	fraction unbound at 6 h, 1 µM [5]	fraction unbound at 6 h, 1 µM [6]	fraction unbound at 6 h, 1 µM [7]
CCCNC(=O)NS(=O)(=O)c1ccc(Cl)cc1 [CHLORPROPAMIDE]	0.65	0.223	0.668	0.441	0.583	0.699	–
CN(C)CCCN1c2ccccc2CCc2ccc(Cl)cc21 [CLOMIPRAMINE]	0.003	0.004	0.003	0.004	0.004	0.006	0.004
CNCCC=C1c2ccccc2CCc2ccccc21 [NORTRIPTYLINE]	0.006	0.007	0.005	0.008	0.006	0.009	0.007
NC(=O)N1c2ccccc2C=Cc2ccccc21 [CARBAMAZEPINE]	0.128	0.171	0.124	0.173	0.171	0.185	0.159
CCCc1nc2c(C)cc(-c3nc4ccccc4n3C)cc2n1Cc1ccc(-c2ccccc2C(=O)O)cc1	0.008	0.013	0.017	0.01	0.014	0.013	0.011
COc1ccc2c(c1)c(CC(=O)O)c(C)n2C(=O)c1ccc(Cl)cc1 [INDOMETHACIN]	0.044	0.044	0.028	0.052	0.055	0.053	0.035
Cc1ccc(C(=O)c2cc(O)c(O)c([N+](=O)[O-])c2)cc1 [TOLCAPONE]	0.002	0.001	0.007	0.002	0.003	0.003	0.05
O=C1CCc2ccc(OCCCCN3CCN(c4cccc(Cl)c4Cl)CC3)cc2N1 [ARIPIPRAZOLE]	0.001	0.001	0.001	0.001	0.002	0.001	0.001
Cc1c(C(=O)NN2CCCCC2)nn(-c2ccc(Cl)cc2Cl)c1-c1ccc(Cl)cc1 [RIMONABANT]	0.0004	0.0004	0.0006	0.0004	0.0005	0.0006	0.0005
CCN(C)C(=O)Oc1cccc([C@H](C)N(C)C)c1 [RIVASTIGMINE]	0.389	0.338	0.241	0.341	0.345	0.316	0.487
C[C@@H](O[C@H]1OCCN(Cc2n[nH]c(=O)[nH]2)[C@H]1c1ccc(F)cc1)c1cc(C(F)(F)F)cc(C(F)(F)F)c1 [APREPITANT]	0.001	0.001	0.001	0.002	0.001	0.002	0.001
CCCCN1CCCCC1C(=O)Nc1c(C)cccc1C (stereo not drawn) [BUPIVACAINE]	0.204	0.15	0.098	0.274	0.232	0.195	0.211
CNCCCN1c2ccccc2CCc2ccccc21 [DESIPRAMINE]	0.007	0.013	0.008	0.011	0.011	0.012	0.017
CN1Cc2c(N)cccc2C(c2ccccc2)C1 (stereo not drawn) [NOMIFENSINE]	0.068	0.066	0.064	0.078	0.071	0.068	0.072
CN1CCCC(n2nc(Cc3ccc(Cl)cc3)c3ccccc3c2=O)CC1 (stereo not drawn) [AZELASTINE]	0.009	0.012	0.009	0.012	–	0.014	0.011
